Reference: the NIST ThermoML archive (doi:10.1016/j.tca.2012.09.009)
Numbers after ± are expanded uncertainties.

Assay: osmotic coefficient (dimensionless); mn = molality of the nth substance listed, in mol/kg
Conditions: 323.15 K, 101 kPa, Liquid, isopiestic method

CCCC[n+]1cccc(C)c1.O=S(=O)([N-]S(=O)(=O)C(F)(F)F)C(F)(F)F + CC(C)O
Conditions	osmotic coefficient
m1 = 0.0504	0.909 ± 0.005
m1 = 0.0795	0.805 ± 0.01
m1 = 0.0981	0.729 ± 0.014
m1 = 0.2086	0.596 ± 0.02
m1 = 0.2979	0.536 ± 0.023
m1 = 0.3949	0.498 ± 0.025
m1 = 0.4981	0.454 ± 0.027
m1 = 0.7859	0.384 ± 0.031
m1 = 1.188	0.321 ± 0.034
m1 = 1.583	0.266 ± 0.037
m1 = 1.975	0.244 ± 0.038
m1 = 2.381	0.233 ± 0.038
m1 = 2.763	0.234 ± 0.038
m1 = 3.323	0.225 ± 0.039

CCC[n+]1cccc(C)c1.O=S(=O)([N-]S(=O)(=O)C(F)(F)F)C(F)(F)F + CC(C)O
Conditions	osmotic coefficient
m1 = 0.0497	0.974 ± 0.001
m1 = 0.0805	0.806 ± 0.01
m1 = 0.1081	0.756 ± 0.012
m1 = 0.1987	0.632 ± 0.018
m1 = 0.2986	0.508 ± 0.025
m1 = 0.41	0.415 ± 0.029
m1 = 0.5278	0.379 ± 0.031
m1 = 0.8355	0.334 ± 0.033
m1 = 1.221	0.281 ± 0.036
m1 = 1.623	0.24 ± 0.038
m1 = 2.072	0.217 ± 0.039
m1 = 2.437	0.206 ± 0.04
m1 = 2.828	0.191 ± 0.04
m1 = 3.326	0.184 ± 0.041

CC[n+]1cccc(C)c1.O=S(=O)([N-]S(=O)(=O)C(F)(F)F)C(F)(F)F + CC(C)O
Conditions	osmotic coefficient
m1 = 0.049	0.951 ± 0.003
m1 = 0.0748	0.834 ± 0.008
m1 = 0.0982	0.752 ± 0.012
m1 = 0.2129	0.605 ± 0.02
m1 = 0.3058	0.529 ± 0.024
m1 = 0.404	0.464 ± 0.027
m1 = 0.5051	0.428 ± 0.029
m1 = 0.8164	0.335 ± 0.033
m1 = 1.211	0.274 ± 0.036
m1 = 1.625	0.233 ± 0.038
m1 = 2.011	0.21 ± 0.04
m1 = 2.415	0.19 ± 0.041
m1 = 2.847	0.176 ± 0.041
m1 = 3.335	0.174 ± 0.041

CCCC[n+]1cccc(C)c1.O=S(=O)([N-]S(=O)(=O)C(F)(F)F)C(F)(F)F + CCC(C)O
Conditions	osmotic coefficient
m1 = 0.0527	0.735 ± 0.013
m1 = 0.0838	0.623 ± 0.019
m1 = 0.1035	0.581 ± 0.021
m1 = 0.2136	0.45 ± 0.028
m1 = 0.3113	0.379 ± 0.031
m1 = 0.411	0.337 ± 0.033
m1 = 0.5068	0.292 ± 0.035
m1 = 0.7963	0.235 ± 0.038
m1 = 1.217	0.195 ± 0.04
m1 = 1.576	0.171 ± 0.041
m1 = 2.032	0.149 ± 0.043
m1 = 2.408	0.135 ± 0.043
m1 = 2.799	0.126 ± 0.044
m1 = 3.261	0.119 ± 0.044
